Consider 16 compounds from patent US7399775B2, “β-amyloid protein production/secretion inhibitor” (Daiichi Pharmaceutical Co., Ltd., priority 2001, dated 2008).

In the case of `O=S(=O)(c1ccc(Cl)cc1)C(c1ccccn1)c1cc(F)ccc1F` (stereo not shown) [Example 135, 2-[[(4-Chlorophenyl)sulfonyl]-(2,5-difluorophenyl)methyl]pyridine], the melting point – broadly, the temperature, or range, at which the solid turns liquid – is 171 to 172 °C. For `CC(C)CCCC(c1cc(F)ccc1F)S(=O)(=O)c1ccc(Cl)cc1` (stereo not shown) [Example 325, 2-[1-(4-Chlorophenylsulfonyl)-5-methylhexyl]-1,4-difluorobenzene] the value was 79 to 80 °C; for `CCC(C)CCC(c1cc(F)ccc1F)S(=O)(=O)c1ccc(Cl)cc1` (stereo not shown) [Example 326, 2-[1-(4-Chlorophenylsulfonyl)-4-methylhexyl]-1,4-difluorobenzene], 56 to 58 °C; for `O=C(OCCC(c1cc(F)ccc1F)S(=O)(=O)c1ccc(Cl)cc1)N1CCOCC1` (stereo not shown) [Example 211, 3-[(4-Chlorophenyl)sulfonyl]-3-(2,5-difluorophenyl)propyl=4-morpholinecarboxylate], 140 to 141 °C. For `O=S(=O)(c1ccc(Cl)cc1)C(Cc1ccccn1)c1cc(F)ccc1F` (stereo not shown) [Example 218, 2-[2-[(4-Chlorophenyl)sulfonyl]-2-(2,5-difluorophenyl)ethyl]pyridine] the value was 105 to 107 °C; for `CC(CCO)C(c1cc(F)ccc1F)S(=O)(=O)c1ccc(Cl)cc1` (single isomer, unassigned) [Example 238, 4-(4-Chlorophenylsulfonyl)-4-(2,5-difluorophenyl)-3-methyl-1-butanol], 111 to 112 °C. `O=S(=O)(c1ccc(Cl)cc1)C(Cc1cccnc1)c1cc(F)ccc1F` (stereo not shown) [Example 219, 3-[2-[(4-Chlorophenyl)sulfonyl]-2-(2,5-difluorophenyl)ethyl]pyridine] had a melting point of 162 to 163 °C. Take `O=C(c1ccncc1)N1CCC(c2cc(F)ccc2F)(S(=O)(=O)c2ccc(Cl)cc2)CC1` [Example 264, [4-[(4-Chlorophenyl)sulfonyl]-4-(2,5-difluorophenyl)piperidino](4-pyridyl)methanone]: the melting point lay within 245 to 248 °C. For `Cl.O=S(=O)(c1ccc(Cl)cc1)C1(c2cc(F)ccc2F)CCNCC1` the value was 239 to 246 °C (dec.); for `Cc1ccnc(C(c2cc(F)ccc2F)S(=O)(=O)c2ccc(Cl)cc2)c1` (stereo not shown) [Example 138, 2-[[(4-Chlorophenyl)sulfonyl]-(2,5-difluorophenyl)methyl]-4-methylpyridine], 116 to 117 °C; for `CS(=O)(=O)CCCCC(c1ccccn1)S(=O)(=O)c1ccc(Cl)cc1` (stereo not shown) [Example 70, 2-[1-[(4-Chlorophenyl)sulfonyl]-5-(methylsulfonyl)pentyl]pyridine], 140 to 141 °C. For `CN1CCC(C(c2ccncc2)S(=O)(=O)c2ccc(Cl)cc2)CC1` (stereo not shown) [Example 124, 4-[(4-Chlorophenylsulfonyl)(1-methylpiperidin-4-yl)methyl]pyridine] the value was 176 to 177 °C; for `O=S(=O)(c1ccc(Cl)cc1)C(Cc1ccco1)c1cc(F)ccc1F` (stereo not shown) [Example 296, 2-[2-[(4-Chlorophenyl)sulfonyl]-2-(2,5-difluorophenyl)ethyl]furan], 90 to 93 °C; for `O=S1(=O)CCC(c2cc(F)ccc2F)(S(=O)(=O)c2ccc(Cl)cc2)CC1` [Example 253, 4-[(4-Chlorophenyl)sulfonyl]-4-(2,5-difluorophenyl)tetrahydrothiopyran-1,1-dioxide], 204 to 206 °C. Consider `O=S(=O)(Cc1ccccc1)c1ccc(Cl)cc1` [Example 50, 1-Chloro-4-(benzylsulfonyl)benzene], for which the melting point was 147.5 to 148.5 °C. The compound `Fc1ccc(F)c(C(Sc2ccc(Cl)cc2)c2ccc(C3OCCO3)cn2)c1` (stereo not shown) [Example 329, 2-[(4-Chlorophenylthio)-(2,5-difluorophenyl)methyl]-5-(1,3-dioxolan-2-yl)pyridine] gave a melting point of 70 to 73 °C.
